The results in this text go back to PubChem BioAssay (NCI).

Test systems include A498 renal; DU-145 prostate; HOP-18 NSCLC; K-562 leukemia; M19-MEL melanoma; OVCAR-4 ovarian; SF-268 CNS; SNB-19 CNS; SNB-75 CNS; SR leukemia.
What all share (assay): growth of human tumour cells (NCI), 48 h

Where “and” joins values, the source holds several entries; their conditions need not be identical. Identical values can stand only once.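 Cells were grown in 96-well plates and exposed to each compound for 48 hours at five concentrations; endpoints were interpolated linearly between bracketing concentrations, or set to the highest concentration if not reached. GI50: concentration for 50% inhibition of growth. TGI marks complete inhibition of growth.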 Where a SMILES comes first, the peptide text is derived from it. [ ]: non-standard residue; d: D form. The star is where a group is joined. NMeF = CN[C@@H](Cc1ccccc1)C(=O)O; NMeV = CN[C@H](C(=O)O)C(C)C; Boc = CC(C)(C)OC(=O)*; OBn = c1ccc(CO*)cc1

As for `Brc1ccccc1C=NC12CC3CC(CC(C3)C1)C2`, the TGI in the assay with A498 renal, in the assay on DU-145 prostate, in the assay with HOP-18 NSCLC, in the assay with K-562 leukemia, in the assay with M19-MEL melanoma and in the assay with OVCAR-4 ovarian was above 100 µM in each case. For the same molecule, the TGI in the assay with SF-268 CNS was above 100 µM; with SNB-19 CNS, above 100 µM; in the assay with SNB-75 CNS it was above 100 µM; in the assay on SR leukemia it was above 28.2 µM.
On to `CC(C)[C@@H](C(=O)N1CCC[C@H]1C(=O)OCc1ccccc1)N(C)C(=O)[C@H](C(C)C)N(C)C(=O)[C@H](Cc1ccccc1)N(C)C(=O)[C@H](NC(=O)OC(C)(C)C)C(C)C` (Boc-[dV][NMeF][NMeV][NMeV]P-OBn), for which the TGI with A498 renal is above 100 µM; in the assay on DU-145 prostate, above 50 µM; with HOP-18 NSCLC, above 100 µM; with K-562 leukemia, above 100 µM; in the assay on M19-MEL melanoma, above 100 µM; with OVCAR-4 ovarian it was above 100 µM. Besides, the TGI with SF-268 CNS, in the assay with SNB-19 CNS, in the assay on SNB-75 CNS and with SR leukemia was above 100 µM each time. The GI50 in the assay on K-562 leukemia, with SF-268 CNS and in the assay on SNB-75 CNS was above 100 µM each time.
In the case of `CC(C(=O)O)/C(=C\c1ccc2c(c1)OCO2)C(=O)O` (configuration not stated), the TGI with A498 renal, in the assay with DU-145 prostate, in the assay on HOP-18 NSCLC, with K-562 leukemia, in the assay on M19-MEL melanoma and in the assay on OVCAR-4 ovarian was above 100 µM throughout. Also, the TGI with SF-268 CNS, with SNB-19 CNS, with SNB-75 CNS and in the assay with SR leukemia was above 100 µM each time.
Consider `CC(=O)OC1CC2C(C)(C)C(=O)C=C[C@]2(C)C2CCC3(C)C(c4ccoc4)[C@@H](O)[C@H]4O[C@]43[C@]12C` (some centres not stated), for which the TGI is 49.7 µM in the assay on A498 renal; 45.5 µM in the assay with HOP-18 NSCLC; 39.5 µM in the assay on K-562 leukemia; 36.5 µM in the assay with M19-MEL melanoma; 38.8 µM in the assay with OVCAR-4 ovarian; 51.8 µM in the assay on SF-268 CNS. The TGI came to 59.6 µM in the assay on SNB-19 CNS, 57.3 µM in the assay with SNB-75 CNS and 41.4 µM in the assay with SR leukemia.
As to `O=C(O)c1cccc2cccc(C(=O)O)c12.[Hg]`, the GI50 in the assay with A498 renal is 18.3 µM; with HOP-18 NSCLC it was 18.6 µM; with K-562 leukemia, 1.5 µM; with M19-MEL melanoma, 10.4 µM; with OVCAR-4 ovarian it was 18 µM; in the assay on SF-268 CNS, 11.5 µM. In addition, the figures for the GI50 in the assay on SNB-19 CNS, with SNB-75 CNS and in the assay with SR leukemia were 15.9 µM, 18.9 µM and 4.05 µM, respectively. The TGI in the assay on A498 renal amounted to 32.3 µM; with HOP-18 NSCLC, 35.3 µM; in the assay with K-562 leukemia, 15.5 µM; in the assay on M19-MEL melanoma, 23.3 µM; in the assay on OVCAR-4 ovarian, 32.6 µM; in the assay on SF-268 CNS, 26.5 µM. Besides, the TGI with SNB-19 CNS is 29.7 µM; with SNB-75 CNS, 36.9 µM; in the assay on SR leukemia, 23.5 µM.
For the molecule `COc1ccc(C(=O)C(C(=O)C(=O)NC2C3CC4CC(C3)CC2C4)c2ccc(OC)cc2)cc1` (configuration not stated), the TGI in the assay with A498 renal, with HOP-18 NSCLC, in the assay with K-562 leukemia, in the assay with M19-MEL melanoma, in the assay on OVCAR-4 ovarian and with SF-268 CNS was above 100 µM throughout. Further, the TGI in the assay with SNB-19 CNS, with SNB-75 CNS and with SR leukemia was above 100 µM in each case.
As to `CCCc1nc(NC#N)nc(C(=O)NC23CC4CC(CC(C4)C2)C3)c1C`, the TGI with A498 renal, in the assay on HOP-18 NSCLC, with K-562 leukemia, in the assay on M19-MEL melanoma, in the assay with OVCAR-4 ovarian and in the assay on SF-268 CNS was above 100 µM each time. The TGI in the assay on SNB-19 CNS, in the assay on SNB-75 CNS and in the assay with SR leukemia was above 100 µM each time.
Take `CN(C)C1=NC2=S(SC(Nc3ccccc3)=N2)S1` (configuration not stated): the TGI with A498 renal was 46.1 µM; in the assay with HOP-18 NSCLC, 91.4 µM; with K-562 leukemia, above 100 µM; in the assay on M19-MEL melanoma it was above 100 µM; in the assay with OVCAR-4 ovarian, above 100 µM; in the assay with SF-268 CNS, above 100 µM. The TGI is 97.9 µM in the assay on SNB-19 CNS, 60.6 µM in the assay on SNB-75 CNS and above 100 µM in the assay on SR leukemia.
On to `CSc1nc(C)c(Br)c(=O)n1C1OC(COC(C)=O)C(OC(C)=O)C(OC(C)=O)C1OC(C)=O` (configuration not stated), for which the GI50 is 29.4 µM and 75.4 µM in the assay with A498 renal; > 100 µM and 44.6 µM with M19-MEL melanoma; > 100 µM and 20.5 µM with OVCAR-4 ovarian; 51.8 µM in the assay on SNB-19 CNS; 10.5 µM and 26.5 µM in the assay with SNB-75 CNS. Besides, the TGI was above 100 µM in the assay with A498 renal; above 100 µM with DU-145 prostate; above 100 µM in the assay on HOP-18 NSCLC; above 100 µM with K-562 leukemia; above 100 µM with M19-MEL melanoma; > 100 µM and 52.2 µM with OVCAR-4 ovarian. In addition, the TGI with SF-268 CNS was > 100 µM and 44.2 µM; with SNB-19 CNS, above 100 µM; in the assay with SNB-75 CNS, 51.8 µM and 65.1 µM; in the assay with SR leukemia, above 100 µM.
Take `O=C1c2cc([N+](=O)[O-])cc3cc([N+](=O)[O-])cc(c23)C(=O)N1CCCNCCNCCCN1C(=O)c2cc([N+](=O)[O-])cc3cc([N+](=O)[O-])cc(c23)C1=O`: the TGI in the assay on A498 renal was determined as 13.4 µM; in the assay with DU-145 prostate, 19.4 µM; with HOP-18 NSCLC, 5.63 µM; with K-562 leukemia it was 14.9 µM; in the assay with M19-MEL melanoma it was 0.752 µM; in the assay with OVCAR-4 ovarian, 3.31 µM. The TGI with SF-268 CNS was 2.03 µM; with SNB-19 CNS, above 23.3 µM; with SNB-75 CNS, 2.57 µM.
Consider `CC(C)NC(=O)OCc1c(COC(=O)NC(C)C)c(-c2ccc(Cl)c(Cl)c2)n2c1CCC2`, for which the TGI in the assay on A498 renal was 43.3 µM; with DU-145 prostate, above 100 µM; in the assay with HOP-18 NSCLC, above 83.9 µM; in the assay with K-562 leukemia it was 77.1 µM; with M19-MEL melanoma it was 61.3 µM; in the assay with OVCAR-4 ovarian, above 78.8 µM. The TGI was 67.6 µM with SF-268 CNS, 81 µM in the assay with SNB-19 CNS, 61.7 µM in the assay on SNB-75 CNS and 36.3 µM in the assay on SR leukemia.
With `OCC1OC(n2cnc3c2NC=NC[C@H]3O)CC1O` (some centres not stated), the GI50 in the assay with A498 renal was above 588 µM; in the assay with HOP-18 NSCLC, 284 µM and > 588 µM; in the assay with K-562 leukemia, above 588 µM; with M19-MEL melanoma it was above 588 µM; in the assay with OVCAR-4 ovarian it was above 588 µM; in the assay on SF-268 CNS, above 588 µM. For the same molecule, the GI50 with SNB-75 CNS is above 588 µM. Also, the TGI in the assay on A498 renal is 481 µM and > 588 µM; in the assay with DU-145 prostate, 500 µM; in the assay with HOP-18 NSCLC, 308 µM and > 588 µM; in the assay with K-562 leukemia, 474 µM and > 588 µM; in the assay with M19-MEL melanoma, 460 µM and > 588 µM; in the assay with OVCAR-4 ovarian, 500 µM and > 588 µM. Also, the TGI is 500 µM and > 588 µM in the assay with SF-268 CNS; 500 µM in the assay with SNB-19 CNS; 498 µM and > 588 µM in the assay on SNB-75 CNS; 443 µM with SR leukemia.
With `CC1=CC(=O)c2c(C=O)c(O)c(O)c(C(C)C)c2C1=O`, the TGI in the assay with A498 renal is 78 µM; in the assay with HOP-18 NSCLC it was 58 µM; in the assay on K-562 leukemia, above 100 µM; with M19-MEL melanoma it was above 100 µM; in the assay with OVCAR-4 ovarian, 23.8 µM; in the assay with SF-268 CNS, 77.2 µM. Moreover, the TGI in the assay with SNB-19 CNS is above 100 µM; with SNB-75 CNS, above 100 µM; in the assay on SR leukemia, above 74.4 µM.
